For data set [1], the system named is acute hepatitis induced by D-galactosamine hydrochloride. The data set is described as follows: Acute hepatitis induced by D-galactosamine hydrochloride in mice, plasma enzymes. The data set is classed as in vivo, male mice of the line Balb C. The settings on record: for Concentration of alanine transaminase / Concentration of glutamatedehydrogenase: mouse blood plasma, D-galactosamine hydrochloride 700 mg/kg i.p., hexapeptide 100 μg/kg or prednisolone 5 mg/kg hypodermally, repeated after 6 hours. On the procedure:
The study of a hepatoprotective effect of the hexapeptide according to the present invention was carried out in comparison with prednisolone on male mice of the line Balb C.
The development of acute hepatitis was induced in mice subjected to a 12-hours' starving by means of D-galactosamine hydrochloride which was administered intraperitoneally diluted in 0.1 ml of a physiological solution in the dose of 700 mg/kg. The control group of animals was administered intraperitoneally with 0.1 ml of a physiological solution. The animals given D-galactosoamine hydrochloride were injected, immediately after its administration, with the hexapeptide according to the present invention (100 μg/kg), prednisolone (5 mg/kg) or a physiological solution (0.1 ml) hypodermally. Repeated injections of the test preparations were made after 6 hours. Each of the groups consisted of 12 animals. The mice were slaughtered by decapitation, blood was collected and in its plasma concentrations of alanine transaminase and glutametedehydrogenase were determined.
The statistical processing of the results obtained was effected using t-criterion. The certain value was regarded as the dirrerence at the level of 95% (at P<0.05).

Data set [2] relates to acute liver injury induced by carbon tetrachloride. The experiment in a line: Acute liver injury induced by carbon tetrachloride in rats, blood enzymes and lethality. The settings on record: for Lethality: comparison of the hexapeptide with somatostatin; for Number of rats survived after 48 hours: groups of 13; for Concentration of alanine transaminase / Concentration of glutamatedehydrogenase: rat blood, CCl4, repeated after 6, 24 and 30 hours. The data set is classed as in vivo, male rats of the V-star line. The procedure: The hexapeptide according to the present invention was also studied on an experimental model of an acute liver injury in male rats of the V-star line induced by means of carbon tetrachloride. After a 12-hours' starvation the rats were given CCl4 in the concentration of […] diluted in olive oil intraperitoneally. After administration of CCl4 the rats were injected with the hexapeptide according to the present invention in different doses (10, 30, 100 and 300 μg/kg). Repeated injections of the hexapeptide according to the invention were effected after 6, 24, and 30 hours. The control group of animals was given, instead of the hexapeptide of this invention, a physiological solution (0.2 ml). All the test groups of animals consisted of 13 rats. Concentrations of alanine transaminase and glutamatedehydrogenase were determined in the rats blood.
A statistical processing in the case of liver injury caused by carbon tetrachloride in respect of the enzymes was effected using t-criterion, while in respect of lethality--by means of .chi.^2 criterion.

The nature of the next data set: Acute toxicity LD50. The settings on record: in vivo.
Another data set in a line: Solubility of the powder. The data set is classed as physicochemical. On the procedure: The hexapeptide according to the present invention comprises a white powder well soluble in distilled water, physiological solution, ethanol, insoluble in ether, ethylacetate, benzene. Melting point is 154°-156° C., (α)D^25 =+8.4 (with 0.5 H2 O).
The nature of data set [3]: Cell composition of the blood and basic hemodynamic characteristics in all experiments. The class given is in vivo. The settings on record: all of the experiments with the hexapeptide.

No end group written: not given here.

`C[C@]12C=CC(=O)C=C1CC[C@@H]1[C@@H]2[C@@H](O)C[C@@]2(C)[C@H]1CC[C@]2(O)C(=O)CO` [prednisolone, reference compound]: the “Effect on the values of the studied parameters (alanine transaminase, glutamatedehydrogenase)” value in data set [1] (D-galactosamine mice, prednisolone 5 mg/kg) is reported as “a trend was observed towards reducing”. Besides, the “Effect on the concentration of the enzymes” value in data set [1] (conventionally employed parenteral dose) is reported as “does not provide any pronounced effect”. Also, in data set [1], the “Concentration of alanine transaminase” value was 151.2 ± 14.3 JU/e and the Concentration of glutamatedehydrogenase worked out at 104.5 ± 10.1 JU/e.
`C[C@H](N)C(=O)NCC(=O)N[C@H]1CSSC[C@@H](C(=O)O)NC(=O)[C@H](CO)NC(=O)[C@H]([C@@H](C)O)NC(=O)[C@H](Cc2ccccc2)NC(=O)[C@H]([C@@H](C)O)NC(=O)[C@H](CCCCN)NC(=O)[C@H](Cc2c[nH]c3ccccc23)NC(=O)[C@H](Cc2ccccc2)NC(=O)[C@H](Cc2ccccc2)NC(=O)[C@H](CC(N)=O)NC(=O)[C@H](CCCCN)NC1=O` [somatostatin, reference compound] showed a Lethality in data set [2] of 20%. The Maximum effective dose in data set [2] (comparison with the hexapeptide) was 1.5 mg/kg.
On to “FAGFGR [hexapeptide of this invention, phenylalanyl-alanyl-glycyl-phenylalanyl-glycylarginine]”, for which the “Acute toxicity LD50” value in the data set “Acute toxicity LD50” is listed as 120 mg/kg. Also, the “Effect on both parameters (alanine transaminase, glutamatedehydrogenase)” value in data set [2] (CCl4 rats, 10-300 μg/kg) is given as “lowers both parameters depending on the dose”. The “Number of rats survived after 48 hours” value in data set [2] (CCl4 rats, dose 10 μg/kg) is given as 6; in data set [2] (CCl4 rats, dose 30 μg/kg) it was 9; in data set [2] (CCl4 rats, dose 100 μg/kg) it was 13; in data set [2] (CCl4 rats, dose 300 μg/kg), 13. For the same compound, the “Lethal cases (%)” value in data set [2] (CCl4 rats, dose 10 μg/kg) is given as 54%; in data set [2] (CCl4 rats, dose 30 μg/kg), 30%; in data set [2] (CCl4 rats, dose 100 μg/kg), 0%; in data set [2] (CCl4 rats, dose 300 μg/kg) it was 0%. Moreover, the Lethal cases result in data set [2] (CCl4 rats, doses of 100 and 300 μg/kg) is “no lethal cases are observed”. Besides, in data set [2], the Lethality stood at 0%. Also, the Maximum effective dose in data set [2] (comparison with somatostatin) is 0.1 mg/kg. The “Maximum effective dose lower than that of somatostatin” value in data set [2] (hexapeptide versus somatostatin) came out at 15 times. The “Concentration of alanine transaminase” value was 4141.5 ± 1094.8 JU/e in data set [2] (10 μg/kg); 3037.8 ± 580.8 JU/e in data set [2] (30 μg/kg); 2339.8 ± 333.4 JU/e in data set [2] (100 μg/kg); 2110.1 ± 374.5 JU/e in data set [2] (300 μg/kg); 115.4 ± 5.2 JU/e in data set [1]. The Concentration of glutamatedehydrogenase amounted to 1962.0 ± 494.7 JU/e in data set [2] (10 μg/kg); 1487.3 ± 301.5 JU/e in data set [2] (30 μg/kg); 874.3 ± 118.3 JU/e in data set [2] (100 μg/kg); 603.3 ± 118.0 JU/e in data set [2] (300 μg/kg); 62.8 ± 4.9 JU/e in data set [1]. Besides, the Solubility result is recorded as “insoluble” in “Solubility of the powder” (benzene); “well soluble” in the data set “Solubility of the powder” (distilled water); “well soluble” in “Solubility of the powder” (ethanol); “insoluble” in the data set “Solubility of the powder” (ether); “insoluble” in “Solubility of the powder” (ethylacetate); “well soluble” in the data set “Solubility of the powder” (physiological solution). Moreover, in data set [1] (D-galactosamine mice, 100 μg/kg), the “Effect on the increase of concentrations of alanine transaminase” value is on record as “substantially fully blocked the increase”. Also, in data set [1] (D-galactosamine mice, 100 μg/kg, versus D-galactosamine + physiological solution), the “Reduction of the concentration of glutamatedehydrogenase” value worked out at 2 times. Further, the “Changes on the part of basic hemodynamic characteristics” value in data set [3] is reported as “no changes were observed”. In addition, the “Changes on the part of the cell composition of the blood” value in data set [3] is “no changes were observed”.

For the origin of these results see US4698419A, “Hexapeptide” (Vsesojuzny Kardiologichesky Nauchny Tsentr Akademii …, priority 1984, dated 1987).
